Measured values published in patent publication US20250066344A1 (BRISTOL-MYERS SQUIBB COMPANY, priority 2021, published 2025).
pEC50: −log10 of the molar value.

Biological target: T1, human RXFP1 (Homo sapiens, UniProt Q9HBX9)
T1 construct: expressed in transfected cells
T1 sequence (Q9HBX9 1-757): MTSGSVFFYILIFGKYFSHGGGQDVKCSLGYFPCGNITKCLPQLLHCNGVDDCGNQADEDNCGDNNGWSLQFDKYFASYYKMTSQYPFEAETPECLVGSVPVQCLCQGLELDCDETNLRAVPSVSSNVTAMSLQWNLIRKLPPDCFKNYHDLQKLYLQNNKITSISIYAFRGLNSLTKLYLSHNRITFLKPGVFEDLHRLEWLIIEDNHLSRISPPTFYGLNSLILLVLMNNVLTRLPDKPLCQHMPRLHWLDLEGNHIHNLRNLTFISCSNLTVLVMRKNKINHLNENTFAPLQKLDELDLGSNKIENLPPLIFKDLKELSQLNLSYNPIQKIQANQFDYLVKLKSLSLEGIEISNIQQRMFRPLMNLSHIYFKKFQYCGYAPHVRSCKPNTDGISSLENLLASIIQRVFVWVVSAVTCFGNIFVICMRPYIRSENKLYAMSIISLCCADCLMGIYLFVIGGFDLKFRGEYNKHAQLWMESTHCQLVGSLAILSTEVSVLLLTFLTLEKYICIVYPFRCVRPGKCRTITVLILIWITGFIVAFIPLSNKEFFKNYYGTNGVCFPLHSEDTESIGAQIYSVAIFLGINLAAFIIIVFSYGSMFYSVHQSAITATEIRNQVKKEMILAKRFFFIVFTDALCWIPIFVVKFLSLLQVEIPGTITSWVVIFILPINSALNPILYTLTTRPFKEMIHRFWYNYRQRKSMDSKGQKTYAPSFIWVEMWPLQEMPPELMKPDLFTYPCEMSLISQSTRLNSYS
Experiment: RXFP1 cyclic adenosine monophosphate (cAMP) assay, hRXFP1 HEK293
Format: cell-based
Conditions: HEK293 cells stably expressing human RXFP1; 30 min at room temperature; HTRF cAMP
Outline: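 HEK293 cells stably expressing human RXFP1 were exposed to compounds (0.010 nM–50 μM, 2% DMSO) for 30 min at room temperature in HBSS/HEPES buffer with 0.5 mM IBMX. Intracellular cAMP was measured by HTRF against a cAMP standard curve; EC50 from 4-parameter logistic fit.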

SMILES	pEC50
COc1ccc(C2=NOC3CN(CC(C)(C)O)CC23)cc1C(=O)Nc1cc2c(cc1C(=O)Nc1ccc(F)c(C(F)(F)F)c1)OC(F)(F)O2 (stereo not shown) [Example 45, 2,2-difluoro-N-(4-fluoro-3-(trifluoromethyl)phenyl)-6-(5-(5-(2-hydroxy-2-methylpropyl)-3a,5,6,6a-tetrahydro-4H-pyrrolo[3,4-d]isoxazol-3-yl)-2-methoxybenzamido)benzo[d][1,3]dioxole-5-carboxamide]	8.22
COc1ccc(-c2cc(C(=O)NS(C)(=O)=O)ccc2F)cc1C(=O)Nc1cc2c(cc1C(=O)Nc1ccc(F)c(C(F)(F)F)c1)OC(F)(F)O2 [Example 47, N3-(2,2-difluoro-6-((4-fluoro-3-(trifluoromethyl)phenyl)carbamoyl)benzo[d][1,3]dioxol-5-yl)-6′-fluoro-4-methoxy-N3′-(methylsulfonyl)-[1,1′-biphenyl]-3,3′-dicarboxamide]	7.07
COc1ccc(-c2cc(C(=O)Nc3cc[nH]n3)ccc2F)cc1C(=O)Nc1cc2c(cc1C(=O)Nc1ccc(F)c(C(F)(F)F)c1)OC(F)(F)O2 [Example 48]	6.71
COc1ccc(-c2nc3c(s2)CNCC3)cc1C(=O)Nc1cc2c(cc1C(=O)Nc1ccc(F)c(C(F)(F)F)c1)OC(F)(F)O2 [Example 52, 2,2-difluoro-N-(4-fluoro-3-(trifluoromethyl)phenyl)-6-(2-methoxy-5-(4,5,6,7-tetrahydrothiazolo[5,4-c]pyridin-2-yl)benzamido)benzo[d][1,3]dioxole-5-carboxamide]	6.17
COc1ccc(-c2nc3c(s2)CN(CC(N)=O)CC3)cc1C(=O)Nc1cc2c(cc1C(=O)Nc1ccc(F)c(C(F)(F)F)c1)OC(F)(F)O2 [Example 53, 6-(5-(5-(2-amino-2-oxoethyl)-4,5,6,7-tetrahydrothiazolo[5,4-c]pyridin-2-yl)-2-methoxybenzamido)-2,2-difluoro-N-(4-fluoro-3-(trifluoromethyl)phenyl)benzo[d][1,3]dioxole-5-carboxamide]	7.48
COc1ccc(-c2cc(C(=O)O)ccc2F)cc1C(=O)Nc1cc2c(cc1C(=O)Nc1ccc(F)c(C(F)(F)F)c1)OC(F)(F)O2 [Example 57, 3′-((2,2-difluoro-6-((4-fluoro-3-(trifluoromethyl)phenyl)carbamoyl)benzo[d][1,3]dioxol-5-yl)carbamoyl)-6-fluoro-4′-methoxy-[1,1′-biphenyl]-3-carboxylic acid]	6.90
COc1ccc(C#CC(C)(C)O)cc1C(=O)Nc1cc2c(cc1C(=O)Nc1ccc(F)c(C(F)(F)F)c1)OC(F)(F)O2 [Example 58, 2,2-difluoro-N-(4-fluoro-3-(trifluoromethyl)phenyl)-6-(5-(3-hydroxy-3-methylbut-1-yn-1-yl)-2-methoxybenzamido) benzo[d][1,3]dioxole-5-carboxamide]	5.97
COc1ccc(-c2cnc3n2CCNC3)cc1C(=O)Nc1cc2c(cc1C(=O)Nc1ccc(F)c(C(F)(F)F)c1)OC(F)(F)O2 [Example 62, 2,2-difluoro-N-(4-fluoro-3-(trifluoromethyl)phenyl)-6-(2-methoxy-5-(5,6,7,8-tetrahydroimidazo[1,2-a]pyrazin-3-yl)benzamido)benzo[d] [1,3]dioxole-5-carboxamide]	6.19
COc1ccc(-c2cc(S(=O)(=O)NC(C)(C)C)ccc2F)cc1C(=O)Nc1cc2c(cc1C(=O)Nc1ccc(F)c(C(F)(F)F)c1)OC(F)(F)O2 [Example 64, 6-(5′-(N-(tert-butyl)sulfamoyl)-2′-fluoro-4-methoxy-{1,1′-biphenyl]-3-carboxamido)-2,2-difluoro-N-(4-fluoro-3-(trifluoromethyl)phenyl) benzo[d][1,3]dioxole-5-carboxamide]	7.43
COc1ccc(-c2cncc(S(=O)(=O)NC(C)(C)C)c2)cc1C(=O)Nc1cc2c(cc1C(=O)Nc1ccc(F)c(C(F)(F)F)c1)OC(F)(F)O2 [Example 70, 6-(5-(5-(N-(tert-butyl)sulfamoyl)pyridin-3-yl)-2-methoxybenzamido)-2,2-difluoro-N-(4-fluoro-3-(trifluoromethyl)phenyl) benzo[d][1,3]dioxole-5-carboxamide]	6.88
COc1ccc(-c2cc(C(C)(C)O)on2)cc1C(=O)Nc1cc2c(cc1C(=O)Nc1ccc(F)c(C(F)(F)F)c1)OC(F)(F)O2 [Example 74]	6.90

More lines, now with the values ahead:

pEC50	SMILES
7.68	COc1ccc(C2=NOC3CC(NC(=O)CO)CC23)cc1C(=O)Nc1cc2c(cc1C(=O)Nc1ccc(F)c(C(F)(F)F)c1)OC(F)(F)O2 (stereo not shown) [Example 51, 2,2-difluoro-N-(4-fluoro-3-(trifluoromethyl)phenyl)-6-(5-(5-(2-hydroxyacetamido)-3a,5,6,6a-tetrahydro-4H-cyclopenta[d]isoxazol-3-yl)-2-methoxybenzamido)benzo[d][1,3]dioxole-5-carboxamide]
7.39	COc1ccc(C#CCO)cc1C(=O)Nc1cc2c(cc1C(=O)Nc1ccc(F)c(C(F)(F)F)c1)OC(F)(F)O2 [Example 59, 2,2-difluoro-N-(4-fluoro-3-(trifluoromethyl)phenyl)-6-(5-(3-hydroxyprop-1-yn-1-yl)-2-methoxybenzamido) benzo[d][1,3]dioxole-5-carboxamide]
6.55	COc1ccc(C2=NOC3CS(=O)(=O)CC23)cc1C(=O)Nc1cc2c(cc1C(=O)Nc1ccc(F)c(C(F)(F)F)c1)OC(F)(F)O2 (stereo not shown) [Example 65, 6-(5-(5,5-dioxido-3a,4,6,6a-tetrahydrothieno[3,4-d]isoxazol-3-yl)-2-methoxybenzamido)-2,2-difluoro-N-(4-fluoro-3-(trifluoromethyl)phenyl) benzo[d][1,3]dioxole-5-carboxamide]
6.47	COc1ccc(C2=NOC3(CCNC3)C2)cc1C(=O)Nc1cc2c(cc1C(=O)Nc1ccc(F)c(C(F)(F)F)c1)OC(F)(F)O2 (stereo not shown) [Example 66, 2,2-difluoro-N-(4-fluoro-3-(trifluoromethyl)phenyl)-6-(2-methoxy-5-(1-oxa-2,7-diazaspiro[4.4]non-2-en-3-yl)benzamido)benzo[d] [1,3]dioxole-5-carboxamide]
6.51	COc1ccc(C2=NOC3(CCNCC3)C2)cc1C(=O)Nc1cc2c(cc1C(=O)Nc1ccc(F)c(C(F)(F)F)c1)OC(F)(F)O2 [Example 67, 2,2-difluoro-N-(4-fluoro-3-(trifluoromethyl)phenyl)-6-(2-methoxy-5-(1-oxa-2,8-diazaspiro[4.5]dec-2-en-3-yl)benzamido)benzo[d] [1,3]dioxole-5-carboxamide]
6.76	COc1ccc(C2=NOC3(CCN(C(=O)CO)CC3)C2)cc1C(=O)Nc1cc2c(cc1C(=O)Nc1ccc(F)c(C(F)(F)F)c1)OC(F)(F)O2 [Example 68, 2,2-difluoro-N-(4-fluoro-3-(trifluoromethyl)phenyl)-6-(5-(8-(2-hydroxyacetyl)-1-oxa-2,8-diazaspiro[4.5]dec-2-en-3-yl)-2-methoxybenzamido) benzo[d][1,3]dioxole-5-carboxamide]
7.38	COc1ccc(C2=NOC3(CCN(CC(N)=O)CC3)C2)cc1C(=O)Nc1cc2c(cc1C(=O)Nc1ccc(F)c(C(F)(F)F)c1)OC(F)(F)O2 [Example 69, 6-(5-(8-(2-amino-2-oxoethyl)-1-oxa-2,8-diazaspiro[4.5]dec-2-en-3-yl)-2-methoxybenzamido)-2,2-difluoro-N-(4-fluoro-3-(trifluoromethyl)phenyl) benzo[d][1,3]dioxole-5-carboxamide]
7.02	COc1ccc(-c2cc([C@H](C)O)on2)cc1C(=O)Nc1cc2c(cc1C(=O)Nc1ccc(F)c(C(F)(F)F)c1)OC(F)(F)O2 [Example 73, (S)-2,2-difluoro-N-(4-fluoro-3-(trifluoromethyl)phenyl)-6-(5-(5-(1-hydroxyethyl)isoxazol-3-yl)-2-methoxybenzamido) benzo[d][1,3]dioxole-5-carboxamide]
6.64	COc1ccc(C2=NOC3(C2)CN(C(=O)CO)C3)cc1C(=O)Nc1cc2c(cc1C(=O)Nc1ccc(F)c(C(F)(F)F)c1)OC(F)(F)O2 [Example 75, 2,2-difluoro-N-(4-fluoro-3-(trifluoromethyl)phenyl)-6-(5-(2-(2-hydroxyacetyl)-5-oxa-2,6-diazaspiro[3.4]oct-6-en-7-yl)-2-methoxybenzamido) benzo[d][1,3]dioxole-5-carboxamide]
6.58	COc1ccc(C2=NOC3(COC(=O)C3)C2)cc1C(=O)Nc1cc2c(cc1C(=O)Nc1ccc(F)c(C(F)(F)F)c1)OC(F)(F)O2 (stereo not shown) [Example 78, 2,2-difluoro-N-(4-fluoro-3-(trifluoromethyl)phenyl)-6-(2-methoxy-5-(8-oxo-1,7-dioxa-2-azaspiro[4.4]non-2-en-3-yl)benzamido)benzo[d] [1,3]dioxole-5-carboxamide]
6.56	COc1ccc(C2=NOC3COCC23)cc1C(=O)Nc1cc2c(cc1C(=O)Nc1ccc(F)c(C(F)(F)F)c1)OC(F)(F)O2 (stereo not shown) [Example 79]
